Assay results from US20170216360A1, “METHODS AND COMPOSITIONS FOR IMPROVING HOMING OF CELLS INCLUDING MESENCHYMAL STEM CELLS” (SANOFI, priority 2014, published 2017).
“Also recorded” adds a separate entry of the source. Counter-ions that a name gives are not always drawn. Like-named read-outs stand apart in the source and are kept apart here.

How the values were obtained:
[1] = test system: LPS-induced inflamed mouse ear; assay: In vivo MSC homing to LPS-induced inflamed ear after systemic infusion, intravital microscopy; set-up: key to In vivo functional assay (homing): NA = negative activity result; A = positive activity result; conditions: for Increase of MSC homing to inflamed ear (%): relative to untreated cells; for MSC homing to the inflamed ear in vivo, result in words: vs vehicle-treated control
Description: C57BL/6 mice (Charles River Laboratories, Wilmington, Mass.) were anesthetized with ketamine/xylazine and their ears shaved 24 h prior to cell infusion. To induce an inflammatory response, 30 μg of E. coli lipopolysaccharide (LPS, Sigma, St. Louis, Mo.) in 50 μL saline was injected into the pinna of the left ear, with 50 μL 0.9% saline injected into the right ear as a control. For in vivo dye sensitivity validation, 1×10e6 cells of each stain were suspended in 150 μL PBS (pH 7.4) and injected by retro-orbital vein infusion.
To evaluate the minimum number of cells needed for a reproducible response, each mouse (n=4) received a range of cell doses (10,000, 50,000, 100,000, or 500,000) each of cells stained with Dil or DiD with a dye switch (i.e., dyes used for experimental and control cells were alternated to prevent bias based on the dyes that were used). To evaluate the impact of small molecule hit pre-treatment on MSC homing to the inflamed ear, MSCs were incubated with 3 μM of the small molecule hit or 0.1% DMSO as a control for 24 h before staining and in vivo administration. To highlight the vasculature, 50 μL of 10 mg/mL FITC-dextran ([…]; Sigma, St. Louis, Mo.) was injected retro-orbitally prior to imaging.
In vitro staining and in vivo homing of stained MSCs to the skin was imaged noninvasively in real time using a custom-built video-rate laser-scanning confocal microscope designed specifically for live animal imaging. For in vivo imaging, the mouse ear was positioned under a coverslip with methylcellulose gel and images acquired at 30 frames per second at a depth up to 200 μm using a 60×1.0NA water immersion objective lens (Olympus, Center Valley, Pa.). DiO labeled MSCs were excited with a 491 nm continuous wave (CW) laser (Cobalt, Stockholm, Sweden), and detected through a 520±20 nm bandpass filter (Semrock, Inc., Rochester, N.Y.). Dil labeled MSCs were excited with a 561 nm CW laser (Coherent, Inc., Santa Clara, Calif.) and detected through a 593 nm±40 nm filter (Omega Optical, Brattleboro, Vt.). DiD labeled MSCs were excited with a 635 nm CW laser (Coherent, Inc., Santa Clara, Calif.) and detected through a 695 nm±27.5 nm band pass filter (Omega Optical, Brattleboro, Vt.). DiR labeled MSCs were excited using a femtosecond Ti:Sapphire Maitai source for single photon excitation at 750 nm (Spectra Physics, Santa Clara, Calif.) and collected through a 785 nm±31 nm band pass filter (Omega Optical, Brattleboro, Vt.).
For quantification, the average number of cells in 20 representative imaging locations across the inflamed region was counted in each mouse. Cells were defined as having a diameter from 10-30 μm to eliminate debris and clumps from analysis, and a primary channel intensity greater than 2 to eliminate autofluorescent events. The average relative detection sensitivity (ratio of Dil/DiD counts) determined in the overall dye efficiency experiments were used to scale the counts for DiD stained cells. […] For multiple comparisons, Tukey's HSD test was used. Error bars in graphs represent standard error, and statistical significance is denoted by * p<0.05.

[2] = test system: CD11a surface expression on huMSCs; assay: Medium throughput screen: CD11a surface expression on MSCs, PE-CY5 anti-CD11a antibody, laser-scanning fluorescence microplate cytometer; type: cell-based, human; set-up: key to Cell surface ligand CD11a (induction of expression): NA = negative activity result; A = positive activity result; conditions: for EC50: read-out: Cell Surface Marker ED 50 (M) Molar Concentration of Compound for CD11a Expression
Description: An in vitro screen was performed for compounds that induce surface expression on huMSCs of the marker CD11a (LFA-1). This screen may be considered a medium throughput screen. Certain compounds that induce the increase of this surface marker were then selected for testing in an in vitro firm adhesion assay and/or in vivo systemic administration in an animal model of inflammation. The surface expression screen involved fluorophore-conjugated antibodies to the respective markers. Following pretreatment with the test compounds, samples of cells were incubated with the labeled antibodies for detection of surface marker expression and change relative to a reference level of untreated cells or negative control samples or values. Cells were pretreated with a concentration (3 μM) of each small molecule compound for 24 hours, followed by incubation with a fluorophore-conjugated anti-marker antibody to detect expression on MSC surface. Surface expression levels of marker ligands were then evaluated by laser-scanning fluorescence microplate cytometer. […] Cell viability in response to compounds was also tested to assess whether molecules have toxicity after 24 hours of pretreatment. Testing was performed on two different huMSC sources representing cells from different donors.
Further details of the screening approach are provided as follows. A unique single batch of bone marrow-derived MSC cells was prepared for the entire screening campaign by cell amplification using CellStack flasks and freezing in separate vials at passage P5. […] For each run, vials were thawed and cells directly seeded on 384-well plates at 3,000 cells per well in MSCGM medium. Following an overnight incubation, cells were treated with the indicated concentrations of compounds for 24 hours. Cells were washed in PBS, 3% BSA and incubated for one hour with PE-CY5-conjugated anti-CD11a monoclonal antibody (clone HI111). Expression of CD11a at the cell surface was detected using the Acumen Explorer, a laser-scanning fluorescence microplate cytometer after two PBS washings. HL-60 cells seeded at 10,000 cells per well and treated with 100 nM phorbol 12-myristate 13-acetate (PMA) for 24 h to induce cell adhesion were used as a positive control in each 384-well plate. Positive compounds were counter-screened for their auto-fluorescence by measuring the signal in the absence of antibody.
A single batch of bone marrow-derived MSC was prepared for the entire screening campaign by cell amplification using CellStack flasks and freezing in separate vials at passage P5. […] For each run, vials were thawed and cells directly seeded on 384-well plates at 3,000 cells per well in MSCGM medium. Following an overnight incubation, cells were pretreated with a low (0.1 μM) and high (3 μM) concentration of the compounds for 24 h. 9,000 cpds were tested in 112 assay plates, each 384-well plate contained 320 cpds (from column 5 to 24), one column for Max (Column2, HL60 cells) and one column for Min (Column4, MSC cells). Cells were washed in PBS, 3% BSA and incubated for one hour with PE-CY5-conjugated anti-CD11a monoclonal Ab (BD Biosciences). Expression of CD11a at the cell surface was detected after two PBS washes using the Acumen Explorer equipment, a laser-scanning fluorescence microplate cytometer. HL-60 cells (seeded at 10,000 cells per well and treated with 100 nM phorbol 12-myristate 13-acetate (PMA) for 24 h to induce cell adhesion) were used as a positive control in each 384-well plate. Positive compounds were counter-screened for their auto-fluorescence by measuring the signal in the absence of Ab. Shown in FIG. 4 is the global screening data. Using the Max, Min columns, we have calculated Max/Min ratio generated with CD11a Ab for each assay plate (signal/background ration in green columns was calculated for each of the 112 assay plates). […]

[3] = MSCs pretreated 3 μM 24 h, 24 h after infusion

SMILES: CCc1c2c(nc3ccc(OC(=O)N4CCC(N5CCCCC5)CC4)cc13)-c1cc3c(c(=O)n1C2)COC(=O)[C@]3(O)CC [Compound 1927, reference compound]
- MSC homing to skin in the inflamed ear, average cells [1, 3]: 47.2±20.4 cells/cm^2
- Increase of MSC homing to inflamed ear (%) [1]: 0%
- MSC homing to the inflamed ear in vivo, result in words [1]: no impact; also recorded: did not affect MSC homing
- CD11a surface expression on MSCs, result in words ([2]; 24 h pretreatment): did not increase
- EC50 ([2]; Homo sapiens, pretreatment of huMSCs): > 3e-05 M

SMILES: Cn1cc(C2=C(c3c4n(c5ccccc35)CCC(CN)C4)C(=O)NC2=O)c2ccccc21 (stereo not shown) [Compound 1929, 3-(8-aminomethyl-6,7,8,9-tetrahydro-pyrido[1,2-a]indol-10-yl)-4-(1-methyl-1H-indol-3-yl)-pyrrole-2,5-dione hydrochloride]
- Increase of MSC homing to inflamed ear compared to vehicle-treated MSCs [1, 3]: 69.3±11.3%
- MSC homing to skin in the inflamed ear, average cells [1, 3]: 78.5±15.9 cells/cm^2
- Increased homing versus vehicle-treated MSCs, without CD11a blocking ([1]; inflamed ear): 70%
- Increased homing versus vehicle-treated MSCs, CD11a blocked prior to infusion ([1]; inflamed ear, anti-human CD11a clone TS1/22): less than 10%
- Increase of MSC homing to inflamed ear (%) ([1]; hydrochloride): 73%
- In vivo functional assay (homing) ([1]; systemic administration of pretreated huMSCs): A
- MSC homing to the inflamed ear in vivo, result in words [1]: significantly promoted MSC homing
- CD11a surface expression on MSCs compared to HL-60 cells ([2]; 24 h pretreatment): two-fold higher
- CD11a surface expression on MSCs, result in words ([2]; 24 h pretreatment): significant increase
- Cell surface ligand CD11a (induction of expression) ([2]; pretreatment of huMSCs): A
- EC50 ([2]; pretreatment of huMSCs, hydrochloride): 8e-07 M
